In patent publication US12195450B2, “Small molecule neutral sphingomyelinase 2 (nSMase2) inhibitors” (The Johns Hopkins University, priority 2019, dated 2025):
Where a name gives a salt, the structure may show the parent alone.

Molecular target: T1, nSMase2 (Homo sapiens, UniProt Q9NY59)
T1 sequence (Q9NY59 1-655): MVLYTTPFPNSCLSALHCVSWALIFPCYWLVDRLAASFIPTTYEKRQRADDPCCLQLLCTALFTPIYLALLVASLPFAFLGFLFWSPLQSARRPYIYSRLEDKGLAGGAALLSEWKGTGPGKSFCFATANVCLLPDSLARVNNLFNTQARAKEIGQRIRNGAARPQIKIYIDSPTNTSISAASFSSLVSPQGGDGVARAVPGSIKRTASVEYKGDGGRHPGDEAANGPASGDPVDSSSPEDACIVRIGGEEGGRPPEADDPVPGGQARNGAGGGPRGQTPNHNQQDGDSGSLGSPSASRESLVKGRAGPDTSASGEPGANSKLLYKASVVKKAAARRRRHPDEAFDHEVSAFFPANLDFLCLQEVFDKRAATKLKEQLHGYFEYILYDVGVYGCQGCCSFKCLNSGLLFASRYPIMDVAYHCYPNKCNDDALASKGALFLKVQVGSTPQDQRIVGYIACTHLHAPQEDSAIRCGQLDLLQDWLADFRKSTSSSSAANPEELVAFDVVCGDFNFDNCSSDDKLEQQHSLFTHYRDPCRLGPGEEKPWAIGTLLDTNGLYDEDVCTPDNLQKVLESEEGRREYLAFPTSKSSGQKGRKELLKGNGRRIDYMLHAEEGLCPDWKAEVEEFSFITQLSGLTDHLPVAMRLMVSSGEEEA
Assay: Inhibition of nSMase2 (IC50)
Format: biochemical

[1] = Table 1, Representative Inhibitors of nSMase2 of Formula (I)

Row | SMILES | IC50 [1] [µM] | IC50 (Table 2, Inhibition of nSMase) [µM]
1 | COc1cc(-c2ncc[nH]2)cc(OC)c1O [Compound 18, 4-(1H-imidazol-2-yl)-2,6-dimethoxyphenol] | 0.4 | 0.4
2 | COc1cc(-c2nc(C)c(C)[nH]2)cc(OC)c1O [Compound 19, 4-(4,5-dimethyl-1H-imidazol-2-yl)-2,6-dimethoxyphenol hydrochloride] | 0.5 | 0.5
3 | COc1cc(-c2nc3c([nH]2)CCCC3)cc(OC)c1O [Compound 20, 2,6-dimethoxy-4-(4,5,6,7-tetrahydro-1H-benzo[d]imidazol-2-yl)phenol] | 0.4 | 0.4
4 | CC(C)Oc1cc(-c2nc(-c3ccccc3)c(-c3cccs3)[nH]2)cc(OC(C)C)c1O [Compound 22, 2,6-diisopropoxy-4-(4-phenyl-5-(thiophen-2-yl)-1H-imidazol-2-yl)phenol] | 0.02 | 0.03
5 | COc1cc(-c2ncc(-c3ccccc3)[nH]2)cc(OC)c1O [Compound 23, 2,6-dimethoxy-4-(5-phenyl-1H-imidazol-2-yl)phenol hydrochloride] | – | 0.07
6 | COc1cc(-c2ncc(C)[nH]2)cc(OC)c1O [Compound 24, 2,6-dimethoxy-4-(5-methyl-1H-imidazol-2-yl)phenol] | 0.2 | 0.2
7 | COc1cc(-c2nc(-c3ccccc3)c(-c3ccccc3)[nH]2)cc(OC)c1O [Compound 25, 4-(4,5-diphenyl-1H-imidazol-2-yl)-2,6-dimethoxyphenol] | – | 0.02
8 | COc1cc(-c2ncc(-c3ccc(Br)cc3)[nH]2)cc(OC)c1O [Compound 26, 4-(5-(4-bromophenyl)-1H-imidazol-2-yl)-2,6-dimethoxyphenol] | 0.2 | 0.2
9 | COc1cc(-c2nc(-c3cccs3)c(-c3cccs3)[nH]2)cc(OC)c1O [Compound 27, 4-(4,5-di(thiophen-2-yl)-1H-imidazol-2-yl)-2,6-dimethoxyphenol] | 0.02 | –
10 | COc1ccc(-c2nc(-c3cc(OC)c(O)c(OC)c3)[nH]c2-c2ccc(OC)cc2)cc1 [Compound 28, 4-(4,5-bis(4-methoxyphenyl)-1H-imidazol-2-yl)-2,6-dimethoxyphenol] | 0.02 | –
11 | COc1cc(-c2nc(-c3ccc(C)cc3)c[nH]2)cc(OC)c1O [Compound 29, 2,6-dimethoxy-4-(4-p-tolyl-1H-imidazol-2-yl)phenol] | 0.1 | 0.1
12 | Oc1c(OC2CCCC2)cc(-c2nc(-c3ccccc3)c(-c3cccs3)[nH]2)cc1OC1CCCC1 [Compound 30, 2,6-bis(cyclopentyloxy)-4-(5-phenyl-4-(thiophen-2-yl)-1H-imidazol-2-yl)phenol] | 0.1 | 0.1
13 | CC(C)(C)Oc1cc(-c2nc(-c3ccccc3)c(-c3cccs3)[nH]2)cc(OC(C)(C)C)c1O [Compound 45, 2,6-di-tert-butoxy-4-(4-phenyl-5-(thiophen-2-yl)-1H-imidazol-2-yl)phenol] | 0.4 | 0.4

Second part, the compound after the results:

Row | IC50 [1] [µM] | IC50 (Table 2, Inhibition of nSMase) [µM] | SMILES
14 | 0.04 | 0.04 | CCCOc1cc(-c2nc(-c3cccs3)c(-c3ccccc3)[nH]2)cc(OCCC)c1O [Compound 31, 4-(5-phenyl-4-(thiophen-2-yl)-1H-imidazol-2-yl)-2,6-dipropoxyphenol]
15 | 0.06 | – | CCCCc1[nH]c(-c2cc(OC)c(O)c(OC)c2)nc1C [Compound 32, 4-(5-butyl-4-methyl-1H-imidazol-2-yl)-2,6-dimethoxyphenol]
16 | 0.08 | 0.08 | CCc1nc(-c2cc(OC)c(O)c(OC)c2)[nH]c1CC [Compound 33, 4-(4,5-diethyl-1H-imidazol-2-yl)-2,6-dimethoxyphenol]
17 | 0.03 | 0.03 | COc1cc(-c2nc(-c3ccco3)c(-c3ccco3)[nH]2)cc(OC)c1O [Compound 34, 4-(4,5-di(furan-2-yl)-1H-imidazol-2-yl)-2,6-dimethoxyphenol hydrochloride]
18 | 0.02 | – | COc1cc(-c2nc(C)c(-c3ccccc3)[nH]2)cc(OC)c1O [Compound 35, 2,6-dimethoxy-4-(4-methyl-5-phenyl-1H-imidazol-2-yl)phenol]
19 | 0.06 | 0.06 | Oc1c(OCC(F)(F)F)cc(-c2nc(-c3ccccc3)c(-c3cccs3)[nH]2)cc1OCC(F)(F)F [Compound 36, 4-(4-phenyl-5-(thiophen-2-yl)-1H-imidazol-2-yl)-2,6-bis(2,2,2-trifluoroethoxy)phenol]
20 | 0.7 | 0.7 | CCc1nc(-c2cc(OCC(F)(F)F)c(O)c(OCC(F)(F)F)c2)[nH]c1CC [Compound 37, 4-(4,5-diethyl-1H-imidazol-2-yl)-2,6-bis(2,2,2-trifluoroethoxy)phenol]
21 | 0.06 | 0.06 | COc1cc(-c2nc(-c3ccc(C)cc3)c(-c3ccc(C)cc3)[nH]2)cc(OC)c1O [Compound 38, 4-(4,5-di-p-tolyl-1H-imidazol-2-yl)-2,6-dimethoxyphenol]
22 | 0.2 | 0.2 | COc1cc(-c2ncc(C34CC5CC(CC(C5)C3)C4)[nH]2)cc(OC)c1O [Compound 39, 2,6-dimethoxy-4-(5-adamantyl-1H-imidazol-2-yl)phenol]
23 | 0.5 | 0.5 | CCc1nc(-c2cc(OC)c(O)c(OC)c2)[nH]c1-c1ccccn1 [Compound 40, 4-(4-ethyl-5-(pyridin-2-yl)-1H-imidazol-2-yl)-2,6-dimethoxyphenol hydrochloride]
24 | 0.01 | 0.01 | COc1cc(-c2nc(-c3cccs3)c(C)[nH]2)cc(OC)c1O [Compound 41, 2,6-dimethoxy-4-(4-methyl-5-(thiophen-2-yl)-1H-imidazol-2-yl)phenol hydrochloride]
25 | 0.6 | 0.6 | COc1cc(-c2nc3ccccc3[nH]2)cc(OC)c1O [Compound 42, 4-(1H-benzo[d]imidazol-2-yl)-2,6-dimethoxyphenol]
26 | 4 | 4 | COc1cc(-c2nc3cccnc3[nH]2)cc(OC)c1O [Compound 43, 4-(3H-imidazo[4,5-b]pyridin-2-yl)-2,6-dimethoxyphenol]
27 | 0.8 | 0.8 | COc1cc(-c2nc3c(C)ccc(C)c3[nH]2)cc(OC)c1O [Compound 44, 4-(4,7-dimethyl-1H-benzo[d]imidazol-2-yl)-2,6-dimethoxyphenol]
28 | 0.2 | 0.2 | CCCCc1nc(-c2cc(OC)c(O)c(OC)c2)[nH]c1CCCC [Compound 46, 4-(4,5-dibutyl-1H-imidazol-2-yl)-2,6-dimethoxyphenol]
29 | 0.06 | 0.06 | COc1cc(-c2nc(C(C)C)c(C(C)C)[nH]2)cc(OC)c1O [Compound 47, 4-(4,5-diisopropyl-1H-imidazol-2-yl)-2,6-dimethoxyphenol]
30 | 0.06 | 0.06 | COc1cc(-c2nc(-c3ccccc3)c(C(C)C)[nH]2)cc(OC)c1O [Compound 48, 4-(5-isopropyl-4-phenyl-1H-imidazol-2-yl)-2,6-dimethoxyphenol]
31 | 60 | – | COc1cc(-c2nc(-c3ccccc3)c(-c3cccs3)n2C)cc(OC)c1O [Compound 3455]
32 | 70 | – | COc1cc(C2=NC3CCCCC3N2)cc(OC)c1O (centres unmarked) [Compound 3546]
